From patent US4524070A, “Aminated derivatives of pyridazine substituted in 6 position by a heterocycle or an alicycle and compositions, said derivatives being active on the central nervous system” (Sanofi, priority 1983, dated 1985)

Legend:
[1] = biological target: cholinergic receptors of muscarinic type; format: binding; conditions: rat cerebra without cerebellum, 0.05 nM QNB (^3 H), 25° C., 1 hour, pH 7.4; read-out: Bond with QNB (^3 H) IC50
[2] = system: ptosis induced by reserpine; experiment: Antagonism of ptosis induced by reserpine; format: in vivo, mouse (female CDI Charles River); conditions: Mus musculus, ip, simultaneous with reserpine 2 mg/kg i.v.; read 1 hour after; batches of 10 mice
Description: Antagonism of ptosis induced by reserpine This test described by GOURET (Journal de Pharmacologie, Paris, 1973, 4 (1), 105-128) was carried out on the female CDI (Charles River) mouse weighing 20±1 g. Reserpine induces a ptosis 1 hour after its intravenous administration; certain antidepressants oppose this ptosis. The following protocol was chosen. The substances to be studied were administered i.p. The reserpine was administered simultaneously by the intravenous route at the dose of 2 mg/kg. 1 hour after administration of reserpine, the number of animals not presenting ptosis was noted. This test was carried out on batches of 10 mice and the percentage of animals not presenting ptosis was determined. The results are expressed in effective dose 50 (ED50) or dose preventing ptosis in 50% of the animals treated.

[3] = system: central serotoninergic transmission; experiment: Potentialization of the head twitches induced by 5-hydroxytryptophane (5-HTP test); format: in vivo, mouse (female CDI Charles River); conditions: 1 hour before 5-hydroxytryptophane 200 mg/kg i.p., % with respect to control mice
Description: Potentialization of the head twitches induced by 5-hydroxytryptophane
The 5-hydroxytryptophane, precursor of the 5-hydroxytryptamine, induces in the mouse typical behaviour characterized by sudden head twitches.
At time zero, the product to be studied is administered by the intraperitoneal route then, 1 hour afterwards, a single dose (200 mg/kg) of 1-5-hydroxytryptophane in suspension in distilled water is in turn administered by the same route. Each animal (female CDI Charles River mouse weighing from 22 to 24 g) is immediately placed in a cylindrical glass beaker. The number of head twitches is counted for 20 minutes.
For each dose of the product to be tested, batches of 10 animals are experimented on, in comparison with a control batch which receives only the vehicle.
The results are expressed in % with respect to the average score obtained in the control mice.

monoamine oxydase A = biological target: T1, monoamine oxydase A (Rattus norvegicus, UniProt P21396); experiment: Measurement of the MAO A activity in vitro; format: biochemical; conditions: rat striatum, 14C 5-hydroxytryptamine 480 μM, pH 7.40, 10 minutes
T1 construct: using the striatum of rate as source of enzyme; from tissue; host or cells: rat striatum homogenate
T1 sequence (P21396 1-526): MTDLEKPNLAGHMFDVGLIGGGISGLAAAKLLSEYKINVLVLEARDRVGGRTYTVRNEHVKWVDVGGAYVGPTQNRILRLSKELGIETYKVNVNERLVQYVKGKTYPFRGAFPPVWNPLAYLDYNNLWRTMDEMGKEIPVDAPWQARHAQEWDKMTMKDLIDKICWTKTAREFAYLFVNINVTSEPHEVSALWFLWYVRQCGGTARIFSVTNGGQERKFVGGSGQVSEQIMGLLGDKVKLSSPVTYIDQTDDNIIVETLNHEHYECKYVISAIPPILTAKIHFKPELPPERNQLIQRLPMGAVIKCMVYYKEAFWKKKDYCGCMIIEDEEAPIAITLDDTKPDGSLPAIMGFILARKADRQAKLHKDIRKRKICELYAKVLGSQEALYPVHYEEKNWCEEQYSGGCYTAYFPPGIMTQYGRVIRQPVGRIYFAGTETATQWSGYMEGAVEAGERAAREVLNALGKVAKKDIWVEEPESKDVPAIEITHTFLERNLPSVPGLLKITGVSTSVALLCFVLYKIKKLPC
Description: Measurement of the MAO A activity in vitro
After dissection, the tissues are homogenized in 16 volumes (weight per volume) of iced phosphate buffer (0.1M, pH=7.40). […] The acid metabolites are extracted in 7 ml of a toluene/ethyl acetate (1:1, vol/vol) mixture then counted by liquid scintillation. The concentration of the product tested which inhibits the control activity by 50% (I.C.50) is determined graphically.

dopaminergic activity = experiment: Rotations test: behaviour of rotation after unilateral lesion of the striatum (dopaminergic activity); format: in vivo, mouse (female Charles River CDI); conditions: 1 hour after administration, counted for 2 minutes
Description: This was studied by analysis of the behaviour of rotation in the mouse after unilateral lesion of the striatum (P. Protais et al., J. Pharmacol., 1976, 7, 251).
Female Charles River CDI mice weighing from 20 to 24 g were previously subjected to a unilateral lesion of the striatum by stereotaxic injection of 6-hydroxydopamine at the rate of 8 mcg per animal. One week after this operation, the products to be studied were administered by the intraperitoneal route to groups of 7 mice. 1 hour after administration of the product, the number of rotations is determined for a period of 2 minutes. The rotations ispilateral with respect to the lesion are counted positively and the contralateral rotations are counted negatively.
The algebraic sum of the rotations for a group of treated animals is compared with that of the group of control animals having received only the vehicle (physiological serum).
The results are expressed in % variation of the rotations of the treated animals with respect to the control animals.

[4] = dose 10 mg/kg i.p., result in words

| Structure (SMILES) | IC50 [1] | ED50 [2] | 5-HTP test % variation ([3]; dose 8 mg/kg i.p., **p 0.01) | MAO A Inhibition IC50 (monoamine oxydase A) | Rotations test % variation (dopaminergic activity; [4]) | 5-HTP test % variation ([3]; dose 7.5 mg/kg i.p., *p 0.05) | 5-HTP test % variation ([3]; dose 10 mg/kg i.p., *p 0.05) | Rotations test % variation (dopaminergic activity; dose 0.5 mg/kg i.p., vs control animals, **p 0.01) |
| --- | --- | --- | --- | --- | --- | --- | --- | --- |
| Cc1cc(-c2cccs2)nnc1NCCN1CCOCC1.Cl.Cl [CM 30387, 3-morpholinoethylamino-4-methyl-6-(2-thienyl)pyridazine, dihydrochloride] | 24 µM | 4.8 mg/kg | 632% | 10 mg/kg | Inactive | – | – | – |
| Cc1cc(-c2ccsc2)nnc1NCCN1CCOCC1.Cl.Cl [CM 30388, 3-morpholinoethylamino-4-methyl-6-(3-thienyl)-pyridazine, dihydrochloride] | 18 µM | 10.3 mg/kg | 647% | 7.8 mg/kg | Inactive | – | – | – |
| Cc1cc(C2CCCCC2)nnc1NCCN1CCOCC1.Cl.Cl [CM 30390, 3-morpholinoethylamino-4-methyl-6-cyclohexyl-pyridazine; dihydrochloride] | 14 µM | 4.5 mg/kg | – | – | Inactive | 219% | – | – |
| Cc1cc(-c2ccccc2)nnc1NCCN1CCOCC1 [Minaprine, reference compound] | 100 µM | 5 mg/kg | – | 16 mg/kg | – | – | 257% | -79% |
